For the assay, the system named is RS4;11 cells. In words: Cell viability assay (CellTiter-Glo) in RS4;11 cells. Type of assay: cell-based. The conditions noted are these: Homo sapiens, 72 h. The method in brief:
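RS4;11 cells seeded at 5000 per well, exposed for 3 days to 8- or 12-point 3-fold serial dilutions. Viability read by CellTiter-Glo luminescence; IC50 fitted by nonlinear least-squares regression.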

[1] abbreviates: RS4;11 cells, cell viability, 3 days, CellTiter-Glo, read-out: IC50.
Where [2] appears, read: RS4;11 ALL cells treated for three days, read-out: cell viability inhibition IC50.

The values below come from patent publication US20230093099A1, “COMPOUNDS AND METHODS OF TREATING CANCERS” (CULLGEN (SHANGHAI), INC., priority 2019, published 2023).

Read-outs that look alike come from different tables or passages of the source.

Broadly, the IC50 is the point on the concentration scale where inhibition reaches its midpoint. As for `O=C1CCC(N2C(=O)c3ccc(NCCOCCOCCOCCOCCC(=O)N4CCC(n5cc(-c6cnc7cccc(-c8cc(F)c(CN9CCOCC9)c(F)c8)c7n6)cn5)CC4)cc3C2=O)C(=O)N1` (centres unmarked) [JA-185, 5-((15-(4-(4-(8-(3,5-Difluoro-4-(morpholinomethyl)phenyl)quinoxalin-2-yl)-1H-pyrazol-1-yl)piperidin-1-yl)-15-oxo-3,6,9,12-tetraoxapentadecyl)amino)-2-(2,6-dioxopiperidin-3-yl)isoindoline-1,3-dione], the half-maximal inhibitory concentration (IC50) under setting [1] is greater than 10000 nM.

`O=C1CCC(N2C(=O)c3ccc(NCCOCCOCCOCCOCCOCCC(=O)N4CCC(n5cc(-c6cnc7cccc(-c8cc(F)c(CN9CCOCC9)c(F)c8)c7n6)cn5)CC4)cc3C2=O)C(=O)N1` (centres unmarked) [JA-186, 5-((18-(4-(4-(8-(3,5-Difluoro-4-(morpholinomethyl)phenyl)quinoxalin-2-yl)-1H-pyrazol-1-yl)piperidin-1-yl)-18-oxo-3,6,9,12,15-pentaoxaoctadecyl)amino)-2-(2,6-dioxopiperidin-3-yl)isoindoline-1,3-dione]: the IC50 under setting [1] is greater than 10000 nM.

With `O=C1CCC(N2C(=O)c3ccc(NCCCCCCCC(=O)N4CCC(n5cc(-c6cnc7cccc(-c8cc(F)c(CN9CCOCC9)c(F)c8)c7n6)cn5)CC4)cc3C2=O)C(=O)N1` (centres unmarked) [JA-187, 5-((8-(4-(4-(8-(3,5-difluoro-4-(morpholinomethyl)phenyl)quinoxalin-2-yl)-1H-pyrazol-1-yl)piperidin-1-yl)-8-oxooctyl)amino)-2-(2,6-dioxopiperidin-3-yl)isoindoline-1,3-dione], the half-maximal inhibitory concentration (IC50) under setting [2] was less than 100 nM and the IC50 under setting [1] worked out at 54.4 nM.

Turning to `O=C1CCC(N2C(=O)c3ccc(NCCCCCCC(=O)N4CCC(n5cc(-c6cnc7cccc(-c8cc(F)c(CN9CCOCC9)c(F)c8)c7n6)cn5)CC4)cc3C2=O)C(=O)N1` (centres unmarked) [JA-188, 5-((7-(4-(4-(8-(3,5-difluoro-4-(morpholinomethyl)phenyl)quinoxalin-2-yl)-1H-pyrazol-1-yl)piperidin-1-yl)-7-oxoheptyl)amino)-2-(2,6-dioxopiperidin-3-yl)isoindoline-1,3-dione], the IC50 is less than 100 nM under setting [2] and 69.7 nM under setting [1].

Turning to `O=C1CCC(N2C(=O)c3ccc(NCCC(=O)N4CCC(n5cc(-c6cnc7cccc(-c8cc(F)c(CN9CCOCC9)c(F)c8)c7n6)cn5)CC4)cc3C2=O)C(=O)N1` (centres unmarked) [JA-190, 5-((3-(4-(4-(8-(3,5-Difluoro-4-(morpholinomethyl)phenyl)quinoxalin-2-yl)-1H-pyrazol-1-yl)piperidin-1-yl)-3-oxopropyl)amino)-2-(2,6-dioxopiperidin-3-yl)isoindoline-1,3-dione], under setting [1], the IC50 was 5160 nM.

Regarding `O=C1CCC(N2C(=O)c3ccc(NCC(=O)N4CCC(n5cc(-c6cnc7cccc(-c8cc(F)c(CN9CCOCC9)c(F)c8)c7n6)cn5)CC4)cc3C2=O)C(=O)N1` (centres unmarked) [JA-191], the IC50 under setting [1] is 9500 nM.

Take `O=C1CCC(N2C(=O)c3ccc(NCCCC(=O)N4CCC(n5cc(-c6cnc7cccc(-c8cc(F)c(CN9CCOCC9)c(F)c8)c7n6)cn5)CC4)cc3C2=O)C(=O)N1` (centres unmarked) [JA-192, 5-((4-(4-(4-(8-(3,5-Difluoro-4-(morpholinomethyl)phenyl)quinoxalin-2-yl)-1H-pyrazol-1-yl)piperidin-1-yl)-4-oxobutyl)amino)-2-(2,6-dioxopiperidin-3-yl)isoindoline-1,3-dione]: the IC50 under setting [1] is greater than 10000 nM.

With `CS(=O)(=O)c1ccc(-c2cccc3nc(Nc4ccc(N5CCN(C(=O)CCOCCOCCOCCOCCOCCNc6ccc7c(c6)C(=O)N(C6CCC(=O)NC6=O)C7=O)CC5)cc4)nn23)cc1` (centres unmarked) [JA-193, 2-(2,6-Dioxopiperidin-3-yl)-5-((18-(4-(4-((5-(4-(methylsulfonyl)phenyl)-[1,2,4]triazolo[1,5-a]pyridin-2-yl)amino)phenyl)piperazin-1-yl)-18-oxo-3,6,9,12,15-pentaoxaoctadecyl)amino)isoindoline-1,3-dione], the IC50 under setting [1] is greater than 10000 nM.

Turning to `CS(=O)(=O)c1ccc(-c2cccc3nc(Nc4ccc(N5CCN(C(=O)CNc6ccc7c(c6)C(=O)N(C6CCC(=O)NC6=O)C7=O)CC5)cc4)nn23)cc1` (centres unmarked) [JA-194, 2-(2,6-Dioxopiperidin-3-yl)-5-((2-(4-(4-((5-(4-(methylsulfonyl)phenyl)-[1,2,4]triazolo[1,5-a]pyridin-2-yl)amino)phenyl)piperazin-1-yl)-2-oxoethyl)amino)isoindoline-1,3-dione], the IC50 under setting [1] was greater than 10000 nM.

With `CS(=O)(=O)c1ccc(-c2cccc3nc(Nc4ccc(N5CCN(C(=O)CCOCCNc6ccc7c(c6)C(=O)N(C6CCC(=O)NC6=O)C7=O)CC5)cc4)nn23)cc1` (centres unmarked) [JA-195, 2-(2,6-Dioxopiperidin-3-yl)-5-((2-(3-(4-(4-((5-(4-(methylsulfonyl)phenyl)-[1,2,4]triazolo[1,5-a]pyridin-2-yl)amino)phenyl)piperazin-1-yl)-3-oxopropoxy)ethyl)amino)isoindoline-1,3-dione], under setting [1], the IC50 is greater than 10000 nM.

Take `CS(=O)(=O)c1ccc(-c2cccc3nc(Nc4ccc(N5CCN(C(=O)CCCCNc6ccc7c(c6)C(=O)N(C6CCC(=O)NC6=O)C7=O)CC5)cc4)nn23)cc1` (centres unmarked) [JA-196, 2-(2,6-dioxopiperidin-3-yl)-5-((5-(4-(4-((5-(4-(methylsulfonyl)phenyl)-[1,2,4]triazolo[1,5-a]pyridin-2-yl)amino)phenyl)piperazin-1-yl)-5-oxopentyl)amino)isoindoline-1,3-dione]: the IC50 under setting [2] was less than 100 nM and the IC50 under setting [1] turned out to be 107 nM.

As for `CS(=O)(=O)c1ccc(-c2cccc3nc(Nc4ccc(N5CCN(C(=O)CCOCCOCCOCCOCCNc6ccc7c(c6)C(=O)N(C6CCC(=O)NC6=O)C7=O)CC5)cc4)nn23)cc1` (centres unmarked) [JA-197, 2-(2,6-Dioxopiperidin-3-yl)-5-((15-(4-(4-((5-(4-(methylsulfonyl)phenyl)-[1,2,4]triazolo[1,5-a]pyridin-2-yl)amino)phenyl)piperazin-1-yl)-15-oxo-3,6,9,12-tetraoxapentadecyl)amino)isoindoline-1,3-dione], the IC50 under setting [1] stood at 5550 nM.

With `CS(=O)(=O)c1ccc(-c2cccc3nc(Nc4ccc(N5CCN(C(=O)CCCCCNc6ccc7c(c6)C(=O)N(C6CCC(=O)NC6=O)C7=O)CC5)cc4)nn23)cc1` (centres unmarked) [JA-198, 2-(2,6-dioxopiperidin-3-yl)-5-((6-(4-(4-((5-(4-(methylsulfonyl)phenyl)-[1,2,4]triazolo[1,5-a]pyridin-2-yl)amino)phenyl)piperazin-1-yl)-6-oxohexyl)amino)isoindoline-1,3-dione], the IC50 under setting [2] is less than 100 nM and the IC50 under setting [1] is 7.3 nM.

As for `CS(=O)(=O)c1ccc(-c2cccc3nc(Nc4ccc(N5CCN(C(=O)CCCCCCNc6ccc7c(c6)C(=O)N(C6CCC(=O)NC6=O)C7=O)CC5)cc4)nn23)cc1` (centres unmarked) [JA-199, 2-(2,6-dioxopiperidin-3-yl)-5-((7-(4-(4-((5-(4-(methylsulfonyl)phenyl)-[1,2,4]triazolo[1,5-a]pyridin-2-yl)amino)phenyl)piperazin-1-yl)-7-oxoheptyl)amino)isoindoline-1,3-dione], the IC50 is less than 100 nM under setting [2] and 32.5 nM under setting [1].

Consider `CS(=O)(=O)c1ccc(-c2cccc3nc(Nc4ccc(N5CCN(C(=O)CCOCCOCCOCCNc6ccc7c(c6)C(=O)N(C6CCC(=O)NC6=O)C7=O)CC5)cc4)nn23)cc1` (centres unmarked) [JA-200, 2-(2,6-Dioxopiperidin-3-yl)-5-((2-(2-(2-(3-(4-(4-((5-(4-(methylsulfonyl)phenyl)-[1,2,4]triazolo[1,5-a]pyridin-2-yl)amino)phenyl)piperazin-1-yl)-3-oxopropoxy)ethoxy)ethoxy)ethyl)amino)isoindoline-1,3-dione], for which the IC50 under setting [1] was 403 nM.

For the compound `CS(=O)(=O)c1ccc(-c2cccc3nc(Nc4ccc(N5CCN(C(=O)CCOCCOCCNc6ccc7c(c6)C(=O)N(C6CCC(=O)NC6=O)C7=O)CC5)cc4)nn23)cc1` (centres unmarked) [JA-201], the IC50 under setting [1] is 241 nM.

As for `CS(=O)(=O)c1ccc(-c2cccc3nc(Nc4ccc(N5CCN(C(=O)CCNc6ccc7c(c6)C(=O)N(C6CCC(=O)NC6=O)C7=O)CC5)cc4)nn23)cc1` (centres unmarked) [JA-202], the IC50 is less than 100 nM under setting [2] and 108 nM under setting [1].

Consider `CS(=O)(=O)c1ccc(-c2cccc3nc(Nc4ccc(N5CCN(C(=O)CCCCCCCNc6ccc7c(c6)C(=O)N(C6CCC(=O)NC6=O)C7=O)CC5)cc4)nn23)cc1` (centres unmarked) [JA-203], for which the half-inhibitory concentration (IC50) runs as follows: under setting [2], less than 100 nM; under setting [1], 22.8 nM.

For `CS(=O)(=O)c1ccc(-c2cccc3nc(Nc4ccc(N5CCN(CC(=O)NCCCCCNc6ccc7c(c6)C(=O)N(C6CCC(=O)NC6=O)C7=O)CC5)cc4)nn23)cc1` (centres unmarked) [JA-204, N-(5-((2-(2,6-Dioxopiperidin-3-yl)-1,3-dioxoisoindolin-5-yl)amino)pentyl)-2-(4-(4-((5-(4-(methylsulfonyl)phenyl)-[1,2,4]triazolo[1,5-a]pyridin-2-yl)amino)phenyl)piperazin-1-yl)acetamide], the IC50 under setting [1] is greater than 10000 nM.

As for `CS(=O)(=O)c1ccc(-c2cccc3nc(Nc4ccc(N5CCN(CC(=O)NCCCCNc6ccc7c(c6)C(=O)N(C6CCC(=O)NC6=O)C7=O)CC5)cc4)nn23)cc1` (centres unmarked) [JA-205, N-(4-((2-(2,6-Dioxopiperidin-3-yl)-1,3-dioxoisoindolin-5-yl)amino)butyl)-2-(4-(4-((5-(4-(methylsulfonyl)phenyl)-[1,2,4]triazolo[1,5-a]pyridin-2-yl)amino)phenyl)piperazin-1-yl)acetamide], the 50% inhibitory concentration (IC50) under setting [1] is 676 nM.

As to `CS(=O)(=O)c1ccc(-c2cccc3nc(Nc4ccc(N5CCN(CC(=O)NCCOCCOCCOCCOCCNc6ccc7c(c6)C(=O)N(C6CCC(=O)NC6=O)C7=O)CC5)cc4)nn23)cc1` (centres unmarked) [JA-206, N-(14-((2-(2,6-Dioxopiperidin-3-yl)-1,3-dioxoisoindolin-5-yl)amino)-3,6,9,12-tetraoxatetradecyl)-2-(4-(4-((5-(4-(methylsulfonyl)phenyl)-[1,2,4]triazolo[1,5-a]pyridin-2-yl)amino)phenyl)piperazin-1-yl)acetamide], under setting [1], the IC50 was greater than 10000 nM.

For `CS(=O)(=O)c1ccc(-c2cccc3nc(Nc4ccc(N5CCN(CC(=O)NCCNc6ccc7c(c6)C(=O)N(C6CCC(=O)NC6=O)C7=O)CC5)cc4)nn23)cc1` (centres unmarked) [JA-207, N-(2-((2-(2,6-Dioxopiperidin-3-yl)-1,3-dioxoisoindolin-5-yl)amino)ethyl)-2-(4-(4-((5-(4-(methylsulfonyl)phenyl)-[1,2,4]triazolo[1,5-a]pyridin-2-yl)amino)phenyl)piperazin-1-yl)acetamide], the IC50 under setting [1] came out at 1240 nM.
